# Assay results taken from patent publication US12581252B2, “Substituted pyrrolo[3,4-b]pyridines as PI3K-α inhibitors” (Relay Therapeutics, Inc., priority 2020, dated 2026).
# pIC50: −log10 of the molar value.
# Biological target: H1047R PIK3CA enzyme (Homo sapiens, UniProt P42336, H1047R)
# Assay: ADP-Glo Biochemical PIK3CA Kinase Assay
# Sequence of H1047R PIK3CA enzyme (P42336 whole entry H1047R): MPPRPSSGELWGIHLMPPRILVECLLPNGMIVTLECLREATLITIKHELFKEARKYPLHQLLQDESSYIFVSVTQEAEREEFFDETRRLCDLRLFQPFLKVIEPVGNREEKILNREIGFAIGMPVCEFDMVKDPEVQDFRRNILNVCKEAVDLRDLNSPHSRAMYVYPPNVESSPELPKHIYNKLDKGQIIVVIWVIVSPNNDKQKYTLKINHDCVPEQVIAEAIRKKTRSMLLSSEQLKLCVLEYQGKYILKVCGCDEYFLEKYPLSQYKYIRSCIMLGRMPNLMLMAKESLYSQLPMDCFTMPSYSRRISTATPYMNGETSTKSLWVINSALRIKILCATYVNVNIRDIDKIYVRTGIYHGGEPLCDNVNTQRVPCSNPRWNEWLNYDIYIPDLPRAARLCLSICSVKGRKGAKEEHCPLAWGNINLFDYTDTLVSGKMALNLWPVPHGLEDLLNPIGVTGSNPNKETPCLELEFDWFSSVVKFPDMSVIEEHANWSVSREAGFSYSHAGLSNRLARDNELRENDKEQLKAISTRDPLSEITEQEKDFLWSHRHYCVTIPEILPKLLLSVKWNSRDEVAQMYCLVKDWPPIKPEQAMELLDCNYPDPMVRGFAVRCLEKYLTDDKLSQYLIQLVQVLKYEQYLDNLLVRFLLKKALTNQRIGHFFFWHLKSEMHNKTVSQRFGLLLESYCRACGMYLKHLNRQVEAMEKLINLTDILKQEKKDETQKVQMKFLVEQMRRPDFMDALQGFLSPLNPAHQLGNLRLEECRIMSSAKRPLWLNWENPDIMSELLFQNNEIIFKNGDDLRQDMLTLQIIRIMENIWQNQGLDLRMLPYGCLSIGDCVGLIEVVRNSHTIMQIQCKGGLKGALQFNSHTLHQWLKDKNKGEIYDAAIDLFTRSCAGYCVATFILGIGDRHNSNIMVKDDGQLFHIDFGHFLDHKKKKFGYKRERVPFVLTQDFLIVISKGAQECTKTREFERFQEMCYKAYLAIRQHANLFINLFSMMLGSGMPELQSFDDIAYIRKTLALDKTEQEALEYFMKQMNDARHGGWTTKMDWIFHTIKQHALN
# Sequence of H1047R PIK3CA enzyme (P27986 whole entry partner): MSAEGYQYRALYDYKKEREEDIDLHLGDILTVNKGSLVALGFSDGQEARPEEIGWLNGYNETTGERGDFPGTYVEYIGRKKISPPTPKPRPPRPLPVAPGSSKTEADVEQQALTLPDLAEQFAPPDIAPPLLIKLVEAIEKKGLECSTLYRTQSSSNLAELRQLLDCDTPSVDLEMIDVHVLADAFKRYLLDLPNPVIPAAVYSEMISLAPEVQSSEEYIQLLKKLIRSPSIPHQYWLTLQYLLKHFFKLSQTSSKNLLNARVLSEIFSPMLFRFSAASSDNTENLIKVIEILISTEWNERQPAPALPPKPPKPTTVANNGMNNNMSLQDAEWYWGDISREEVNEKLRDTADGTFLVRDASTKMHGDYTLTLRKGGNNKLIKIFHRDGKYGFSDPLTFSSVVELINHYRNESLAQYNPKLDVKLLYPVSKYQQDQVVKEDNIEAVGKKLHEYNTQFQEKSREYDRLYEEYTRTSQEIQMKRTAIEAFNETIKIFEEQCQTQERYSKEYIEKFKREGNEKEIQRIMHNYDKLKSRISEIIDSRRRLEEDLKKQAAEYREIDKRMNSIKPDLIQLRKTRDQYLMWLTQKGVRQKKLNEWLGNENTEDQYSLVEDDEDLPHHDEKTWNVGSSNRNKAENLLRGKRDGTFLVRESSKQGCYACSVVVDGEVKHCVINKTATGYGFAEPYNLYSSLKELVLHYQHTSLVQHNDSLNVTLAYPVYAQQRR
row,pIC50,Compound
1,5.00 to 6.00,Cc1ccccc1C1NC(=O)c2cccc(NC(=O)c3cc(F)cc(C4COC4)c3)c21 (centres unmarked) [Compound I-657]
2,≥ 7.00,O=C(Nc1cc(NC(=O)C2CC2)cc2c1C(c1cc(F)ccc1Cl)NC2=O)c1cc(F)cc(C(F)(F)F)c1 (centres unmarked) [Compound I-625]
3,5.00 to 6.00,CN(C)S(=O)(=O)Cc1cc(NC(=O)c2cc(F)cc(C(F)(F)F)c2)c2c(c1)C(=O)N[C@@H]2c1cc(F)ccc1Cl [Compound I-1488]
4,≥ 7.00,Cn1cc(-c2cc(NC(=O)c3cc(F)cc(Cl)c3)c3c(n2)C(=O)NC3c2cc(F)ccc2Cl)ccc1=O (centres unmarked) [Compound I-456]
5,5.00 to 6.00,"CC(C)(C#N)n1cc(-c2cc(NC(=O)N3C[C@@](O)(C(F)(F)F)c4cc(F)ccc43)c3c(c2)C(=O)N[C@H]3c2cc(F)ccc2Cl)cn1 (single isomer, unassigned) [Compound I-2612]"
6,≥ 7.00,O=C(Nc1cc(CC(O)C(F)(F)F)cc2c1C(c1cc(F)ccc1Cl)NC2=O)c1cc(F)cc(C(F)(F)F)c1 (centres unmarked) [Compound I-1200]
7,4.00 to 5.00,"CC(C)(O)c1cc(NC(=O)N2C[C@@H](O)c3ccccc32)c2c(c1)C(=O)N[C@@H]2c1cc(F)ccc1Cl (single isomer, unassigned) [Compound I-2122]"
8,5.00 to 6.00,O=C(Nc1cnc(NC2COC2)c2c1C(c1cc(F)ccc1Cl)NC2=O)c1cc(F)cc(C(F)(F)F)c1 (centres unmarked) [Compound I-440]
9,6.30 to 7.00,O=C1NC(c2cc(F)ccc2Cl)c2c(NC(=O)N3CC4(CC4)c4ccccc43)cc(Br)cc21 (centres unmarked) [Compound I-1462]
10,5.00 to 6.00,"Cc1ccccc1C1NC(=O)c2cccc(NC(=O)C34CCC(CC3)CC4)c21 (centres unmarked) [Compound I-179, N-(1-Oxo-3-(o-tolyl)isoindolin-4-yl)bicyclo[2.2.2]octane-1-carboxamide]"
11,4.00 to 5.00,CC(C)(O)c1cnc2ccc(-c3cc(NC(=O)c4cc(F)cc(C(F)(F)F)c4)c4c(c3)C(=O)N[C@@H]4c3cc(F)ccc3Cl)cc2c1 [Compound I-1605]
12,6.30 to 7.00,Cc1ccccc1[C@H]1NC(=O)c2c(C#N)ccc(NC(=O)c3cc(F)cc(C(F)(F)F)c3)c21 [Compound I-397]
13,5.00 to 6.00,Cc1ccccc1C1NC(=O)c2cccc(NC(=O)c3cnn4ccc(Cl)cc34)c21 (centres unmarked) [Compound I-48]
14,≥ 7.00,N#Cc1cnc2ccc(-c3cc(NC(=O)c4cc(F)cc(C(F)(F)F)c4)c4c(c3)C(=O)NC4c3cc(F)ccc3Cl)cn12 (centres unmarked) [Compound I-1410]
15,5.00 to 6.00,"O=C1N[C@@H](c2cc(F)ccc2Cl)c2c(NC(=O)N3C[C@H](O)c4cc(F)ccc43)cc(-n3ccnn3)cc21 (single isomer, unassigned) [Compound I-2368]"
16,≥ 7.00,"Cc1ccccc1C1NC(=O)c2cc(CO)cc(NC(=O)c3nsc4ccccc34)c21 (centres unmarked) [Compound I-131, N-[6-(Hydroxymethyl)-3-(2-methylphenyl)-1-oxo-2,3-dihydro-1H-isoindol-4-yl]-1,2-benzothiazole-3-carboxamide]"
17,4.00 to 5.00,Cc1ccccc1[C@H]1NC(=O)c2nccc(NC(=O)N3CCc4ccc(F)cc43)c21 [Compound I-247]
18,4.00 to 5.00,O=C(CCC(F)(F)F)Nc1cccc2c1[C@H](c1cc(F)ccc1Cl)NC2=O [Compound I-2120]
19,4.00 to 5.00,O=C(/C=C/c1ccccc1)Nc1cccc2c1C(c1cc(F)ccc1Cl)NC2=O (centres unmarked) [Compound I-2372]
20,6.30 to 7.00,"CNc1cc(NC(=O)N2C[C@](O)(C(F)(F)F)c3cc(F)ccc32)c2c(n1)C(=O)N[C@H]2c1cc(F)ccc1Cl (single isomer, unassigned) [Compound I-2647]"

row,pIC50,Compound
1,6.30 to 7.00,CN1CCO/C1=N\c1cc(NC(=O)c2cc(F)cc(C(F)(F)F)c2)c2c(c1)C(=O)NC2c1cc(F)ccc1Cl (centres unmarked) [Compound I-2202]
2,5.00 to 6.00,O=C(Nc1cc(-c2ccc3nccn3n2)cc2c1[C@@H](c1cc(F)ccc1Cl)NC2=O)c1cc(F)cc(C(F)(F)F)c1 [Compound I-1331]
3,≥ 7.00,COc1cnc2ccc(-c3cc(NC(=O)c4cc(F)cc(C(F)(F)F)c4)c4c(c3)C(=O)NC4c3cc(F)ccc3Cl)cc2c1 (centres unmarked) [Compound I-1602]
4,≥ 7.00,O=C(Nc1cc(N2CCn3cnnc3C2)cc2c1C(c1cc(F)ccc1Cl)NC2=O)c1cc(F)cc(C(F)(F)F)c1 (centres unmarked) [Compound I-1354]
5,≥ 7.00,"CN1C[C@H](COc2cc(NC(=O)c3cc(F)cc(C(F)(F)F)c3)c3c(c2)C(=O)N[C@H]3c2cc(F)ccc2Cl)CC1=O (single isomer, unassigned) [Compound I-1522]"
6,≥ 7.00,O=C(Nc1cc(-c2cnn(C(F)F)c2)cc2c1C(c1cc(F)ccc1Cl)NC2=O)c1cc(F)cc(Cl)c1 (centres unmarked) [Compound I-1863]
7,6.30 to 7.00,Cc1ccc2c(c1)N(C(=O)Nc1cccc3c1C(c1cc(F)ccc1Cl)NC3=O)CC2 (centres unmarked) [Compound I-2470]
8,≥ 7.00,O=C(Nc1cc(-c2ccn3ncnc3c2F)cc2c1C(c1cc(F)ccc1Cl)NC2=O)c1cc(F)cc(C(F)(F)F)c1 (centres unmarked) [Compound I-1698]
9,≥ 7.00,CNC(=O)Cc1cc(NC(=O)c2cc(F)cc(C(F)(F)F)c2)c2c(c1)C(=O)NC2c1cc(F)ccc1Cl (centres unmarked) [Compound I-438]
10,6.30 to 7.00,C[C@H]([C@@H]1C[C@@H](O)CN1C(=O)Nc1cccc2c1[C@H](c1cc(F)ccc1Cl)NC2=O)C(F)(F)F (racemic) [Compound I-2341]
11,4.00 to 5.00,O=C(Nc1cc(Br)cc2c1C(c1cc(F)ccc1Cl)NC2=O)c1cccc2c1OCCC2 (centres unmarked) [Compound I-601]
12,≥ 7.00,Cc1ncc(-c2cc(NC(=O)c3cc(F)cc(C(F)(F)F)c3)c3c(c2)C(=O)NC3c2cc(F)ccc2Cl)cn1 (centres unmarked) [Compound I-732]
13,5.00 to 6.00,N#Cc1cnc2cnc(-c3cc(NC(=O)c4cc(F)cc(C(F)(F)F)c4)c4c(c3)C(=O)N[C@@H]4c3cc(F)ccc3Cl)cn12 [Compound I-1922]
14,≥ 7.00,"C[C@@H](C#N)Oc1cc(NC(=O)c2cc(F)cc(C(F)(F)F)c2)c2c(c1)C(=O)N[C@H]2c1cc(F)ccc1Cl (single isomer, unassigned) [Compound I-2009]"
15,4.00 to 5.00,"Cc1ccccc1C1(C)NC(=O)c2cccc(NC(=O)c3csc4ccccc34)c21 (centres unmarked) [Compound I-80, N-(3-Methyl-1-oxo-3-(o-tolyl)isoindolin-4-yl)benzo[b]thiophene-3-carboxamide]"
16,6.30 to 7.00,"N#CCc1cc(NC(=O)N2C[C@@](O)(C(F)F)c3cc(F)ccc32)c2c(c1)C(=O)N[C@H]2c1cc(F)ccc1Cl (single isomer, unassigned) [Compound I-2599]"
17,5.00 to 6.00,CS(=O)(=O)Cc1cc(NC(=O)c2cc(F)cc(C(F)(F)F)c2)c2c(c1)C(=O)N[C@@H]2c1cc(F)ccc1Cl [Compound I-619]
18,5.00 to 6.00,"O=C1N[C@@H](c2cc(F)ccc2Cl)c2c(NC(=O)N3C[C@@](O)(C(F)(F)F)c4cc(F)ccc43)cc(F)cc21 (single isomer, unassigned) [Compound I-2628]"
19,4.00 to 5.00,O=C1NC(c2cc(F)ccc2Cl)c2c(NC(=O)C3(c4ccccc4)COC3)cc(Br)cc21 (centres unmarked) [Compound I-632]
20,6.30 to 7.00,O=C(Nc1cc(-c2n[nH]c3ccncc23)cc2c1C(c1cc(F)ccc1Cl)NC2=O)c1cc(F)cc(C(F)(F)F)c1 (centres unmarked) [Compound I-938]

row,pIC50,Compound
1,4.00 to 5.00,"O=C(Nc1cccc2c1[C@@H](C1CC1)NC2=O)c1cc(F)cc(C(F)(F)F)c1 (single isomer, unassigned) [Compound I-2220]"
2,6.30 to 7.00,"O=C1N[C@@H](c2cc(F)ccc2Cl)c2c(NC(=O)N3C[C@](O)(C(F)(F)F)c4cc(F)ccc43)cc(Cl)cc21 (single isomer, unassigned) [Compound I-2511]"
3,4.00 to 5.00,O=C1NC(c2cc(F)ccc2Cl)c2c(CN3CCCCC3=O)cc(-c3ccc4ncnn4c3)cc21 (centres unmarked) [Compound I-1999]
4,6.30 to 7.00,O=C(Nc1cc(C2COCCO2)cc2c1C(c1cc(F)ccc1Cl)NC2=O)c1cc(F)cc(C(F)(F)F)c1 (centres unmarked) [Compound I-1361]
5,≥ 7.00,O=C(Nc1cc(CCC(F)(F)F)nc2c1C(c1cc(F)ccc1Cl)NC2=O)c1cc(F)cc(C(F)(F)F)c1 (centres unmarked) [Compound I-529]
6,5.00 to 6.00,O=C(Nc1cc(Br)cc2c1C(c1cc(F)cc(F)c1)NC2=O)c1cc(F)cc(F)c1 (centres unmarked) [Compound I-2156]
7,≥ 7.00,N#Cc1nn(C(F)F)cc1-c1cc(NC(=O)c2cc(F)cc(C(F)(F)F)c2)c2c(c1)C(=O)NC2c1cc(F)ccc1Cl (centres unmarked) [Compound I-1826]
8,≥ 7.00,O=C(Nc1cc(N[C@@H]2CC[C@H]2O)cc2c1C(c1cc(F)ccc1Cl)NC2=O)c1cc(F)cc(C(F)(F)F)c1 (mixture of isomers) [Compound I-721]
9,≥ 7.00,O=C(Nc1cc(-c2cnn(S(=O)(=O)C(F)F)c2)cc2c1[C@H](c1cc(F)ccc1Cl)NC2=O)c1cc(F)cc(C(F)(F)F)c1 [Compound I-2093]
10,≥ 7.00,O=C(O)c1cc(NC(=O)c2cc(F)cc(C(F)(F)F)c2)c2c(c1)C(=O)NC2c1cc(F)ccc1Cl (centres unmarked) [Compound I-494]
11,4.00 to 5.00,O=C(NCCC(O)C(F)(F)F)c1cccc2c1C(c1cc(F)ccc1Cl)NC2=O (centres unmarked) [Compound I-2094]
12,4.00 to 5.00,"O=C1N[C@@H](c2cc(F)ccc2Cl)c2c(NC(=O)[C@@H]3C[C@@H](O)C[C@H](C(F)(F)F)C3)cccc21 (single isomer, unassigned) [Compound I-2175]"
13,5.00 to 6.00,COc1ccc(F)cc1C(=O)Nc1cc(Br)cc2c1C(c1cc(F)ccc1Cl)NC2=O (centres unmarked) [Compound I-796]
14,6.00 to 6.30,O=C(Nc1cc(Br)cc2c1C(c1cc(F)ccc1Cl)NC2=O)c1ccc(F)c(C(F)(F)F)c1 (centres unmarked) [Compound I-566]
15,5.00 to 6.00,"O=C1N[C@@H](c2cc(F)ccc2Cl)c2c(NC(=O)N3C[C@@](O)(C(F)(F)F)c4cc(F)ccc43)cc(C(F)F)cc21 (single isomer, unassigned) [Compound I-2578]"
16,≥ 7.00,O=C(Nc1cc(-c2ccncc2F)nc2c1C(c1cc(F)ccc1Cl)NC2=O)c1cc(F)cc(Cl)c1 (centres unmarked) [Compound I-502]
17,5.00 to 6.00,O=C(Nc1cc(-c2cc(F)n3ncnc3c2)cc2c1[C@@H](c1cc(F)ccc1Cl)NC2=O)c1cc(F)cc(C(F)(F)F)c1 [Compound I-1926]
18,4.00 to 5.00,Cn1c2c(c(NC(=O)c3cc(F)cc(C(F)(F)F)c3)cc1=O)C(c1cc(F)ccc1Cl)NC2=O (centres unmarked) [Compound I-727]
19,5.00 to 6.00,"N#CCc1ccc(NC(=O)N2C[C@@](O)(C(F)(F)F)c3cc(F)ccc32)c2c1C(=O)N[C@@H]2c1cc(F)ccc1Cl (single isomer, unassigned) [Compound I-2617]"
